Data set [1] concerns KG-1. Description: In vitro antiproliferative assay (MTT), KG-1. In kind it is cell-based. To be noted: Homo sapiens, 72 h. As to the method:
(§1) The cell proliferation assay was determined by the MTT (3-[4,5-dimethyl-2-thiazolyl]-2,5-diphenyl-2H-tetrazolium bromide) method. Briefly, cells were passaged the day before dosing into a 96-well plate, allowed to grow for 12 h, and then treated with different concentrations of compound for 72 h. A 0.5% MTT solution was added to each well. After incubation for another 4 h, formazan formed from MTT was extracted by adding 200 μL of DMSO. Absorbance was then determined using a microplate reader at 570 nm.

Data set [2] concerns the target T1, HDAC6 (Homo sapiens, UniProt Q9UBN7).
T1 sequence (Q9UBN7 1-1215): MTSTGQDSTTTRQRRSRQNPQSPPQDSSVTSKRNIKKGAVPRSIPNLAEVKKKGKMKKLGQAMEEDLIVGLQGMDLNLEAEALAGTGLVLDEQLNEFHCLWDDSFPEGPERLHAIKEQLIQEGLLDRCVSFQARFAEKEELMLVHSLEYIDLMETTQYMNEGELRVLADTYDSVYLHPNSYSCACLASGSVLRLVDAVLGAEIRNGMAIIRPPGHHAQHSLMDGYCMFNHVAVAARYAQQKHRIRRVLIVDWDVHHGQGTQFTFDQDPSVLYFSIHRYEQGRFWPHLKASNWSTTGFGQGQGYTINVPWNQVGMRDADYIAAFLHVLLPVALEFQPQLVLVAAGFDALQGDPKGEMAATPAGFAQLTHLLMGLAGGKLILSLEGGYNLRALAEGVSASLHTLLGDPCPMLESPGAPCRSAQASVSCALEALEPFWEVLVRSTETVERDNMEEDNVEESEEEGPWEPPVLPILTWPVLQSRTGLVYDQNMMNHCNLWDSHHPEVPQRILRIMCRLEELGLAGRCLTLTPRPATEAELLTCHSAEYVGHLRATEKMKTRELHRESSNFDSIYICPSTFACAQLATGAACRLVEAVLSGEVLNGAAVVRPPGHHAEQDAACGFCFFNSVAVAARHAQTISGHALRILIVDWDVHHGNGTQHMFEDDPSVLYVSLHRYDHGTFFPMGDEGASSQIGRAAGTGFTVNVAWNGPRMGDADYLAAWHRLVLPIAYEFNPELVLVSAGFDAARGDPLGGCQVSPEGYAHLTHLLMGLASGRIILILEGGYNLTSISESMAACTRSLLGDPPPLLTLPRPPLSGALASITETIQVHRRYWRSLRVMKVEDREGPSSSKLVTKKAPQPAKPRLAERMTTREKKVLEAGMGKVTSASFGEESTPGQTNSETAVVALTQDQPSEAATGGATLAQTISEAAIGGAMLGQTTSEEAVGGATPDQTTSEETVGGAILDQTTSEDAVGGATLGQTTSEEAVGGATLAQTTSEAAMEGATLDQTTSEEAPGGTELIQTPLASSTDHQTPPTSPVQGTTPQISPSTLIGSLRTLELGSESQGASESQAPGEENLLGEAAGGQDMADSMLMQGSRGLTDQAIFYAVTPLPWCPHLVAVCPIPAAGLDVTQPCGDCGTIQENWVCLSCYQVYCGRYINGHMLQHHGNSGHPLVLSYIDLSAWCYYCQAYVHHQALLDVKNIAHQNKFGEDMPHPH
Description: In vitro HDAC inhibition fluorescent assay, HDAC6. In kind it is biochemical. To be noted: Boc-Lys(acetyl)-AMC substrate. As for the experimental part:
(§2) An aliquot of 10 μL of enzyme solution (HeLa cell nuclear extract, HDAC2, HDAC6, or HDAC8) was mixed with different concentrations of test compound (50 μL). The mixture was incubated at 37°C for 5 min, followed by the addition of 40 μL of fluorogenic substrate tert-butyl (S)-(6-acetamido- 1-((4-methyl-2-oxo-2H-chromen-7-yl)amino)-1-oxohexan-2-yl) carbamate (Boc-Lys(acetyl)-AMC) for HeLa cell nuclear extracts, HDAC2, and HDAC6; tert-butyl (S)-(1-((4-methyl- 2-oxo-2H-chromen-7-yl)amino)-1-oxo-6-(2,2,2-trifluoroacetam ido)hexan-2-yl)carbamate (Boc-Lys(trifluoroacetyl)-AMC) for HDAC8). After incubation at 37°C for 30 min, the mixture was quenched by the addition of 100 μL of developer containing trypsin and trichostatin A. Following incubation at 37°C for 20 min, the fluorescence intensity was measured using a microplate reader at excitation and emission wavelengths of 390 and 460 nm, respectively. The inhibition ratios were calculated from the fluorescence intensity readout of tested wells relative to those of control wells, and the half maximal inhibitory concentration (IC50) values were calculated using the prism non-linear curve-fitting method.

Data set [3] in a line: In vitro metabolic stability assay in human plasma. It counts as in vitro ADME. To be noted: 37°C, LC-MS/MS, read-out: t1/2 Human plasma. As for the experimental part:
Human plasma samples containing compound 1 were incubated at 37°C. At the specific time points, samples were added to acetonitrile to terminate the reaction, then subjected to vortex mixing for 5 min and stored in a freezer at –80°C. Before analysis, the samples were centrifuged. The remainder of 1 in the supernatants was analyzed by liquid chromatography with tandem mass spectrometry (LC-MS/MS). The t1/2(half–time) values were calculated using the equation t1/2(half–time) = −0.693/k, where k is the slope found in the linear fit of the natural logarithm of the fraction remaining of compound 1 versus incubation time.

Data set [4] deals with MCF-7. Description: In vitro antiproliferative assay (MTT), MCF-7. In kind it is cell-based. To be noted: Homo sapiens, MCF7, 72 h. As for the experimental part: as §1
The target of data set [5] is HDAC2 (Homo sapiens, UniProt Q92769). Description: In vitro HDAC inhibition fluorescent assay, HDAC2. In kind it is biochemical. To be noted: Boc-Lys(acetyl)-AMC substrate. As for the experimental part: as §2
For data set [6], the system named is SK-N-BE(2). Description: In vitro antiproliferative assay (MTT), SK-N-BE(2). It counts as cell-based. To be noted: Homo sapiens, SKNBE2, 72 h. As for the experimental part: as §1
Data set [7] deals with T2, HDAC8 (Homo sapiens, UniProt Q9BY41).
T2 sequence (Q9BY41 1-377): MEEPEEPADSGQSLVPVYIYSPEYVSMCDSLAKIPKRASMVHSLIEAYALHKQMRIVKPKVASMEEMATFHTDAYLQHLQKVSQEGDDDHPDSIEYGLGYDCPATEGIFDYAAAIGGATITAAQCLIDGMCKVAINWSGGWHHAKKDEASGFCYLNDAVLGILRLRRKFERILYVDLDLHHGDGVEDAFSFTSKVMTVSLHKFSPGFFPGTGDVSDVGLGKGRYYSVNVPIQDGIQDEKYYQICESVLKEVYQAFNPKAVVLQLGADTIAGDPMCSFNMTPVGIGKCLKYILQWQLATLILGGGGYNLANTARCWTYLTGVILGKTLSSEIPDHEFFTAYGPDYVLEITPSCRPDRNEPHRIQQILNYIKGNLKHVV
Description: In vitro HDAC inhibition fluorescent assay, HDAC8. In kind it is biochemical. To be noted: Boc-Lys(trifluoroacetyl)-AMC substrate. As for the experimental part: as §2

In data set [8] the test system is acetyl-histone H4 and acetyl-α-tubulin in MDA-MB-231 cells. Put plainly: Western blot analysis of intracellular HDAC inhibition. In kind it is cell-based, human. To be noted: for level of acetyl-histone H4 / level of acetyl-α-tubulin: 3 h, immunoblot. As for the experimental part:
The MDA-MB-231 cells were treated with compounds or DMSO for a specified period of time. Then the cells were washed twice with cold phosphate-buffered saline (PBS) and lysed in ice-cold radioimmunoprecipitation assay (RIPA) buffer. Lysates were cleared by centrifugation. Protein concentrations were determined using the bicinchoninic acid assay. Equal amounts of cell extracts were then resolved by sodium dodecyl sulfate–polyacrylamide gel electrophoresis, transferred to nitrocellulose membranes, and probed with acetyl-histone H4 antibody (intracellular substrate of HDAC1 and HDAC2), acetyl-α-tubulin antibody (intracellular substrate of HDAC6), and β-actin antibody (used as a loading control), respectively. Blots were detected using an enhanced chemiluminescence system.
Background: In western blotting, separated proteins are transferred to a membrane and probed.

The test system of data set [9] is MDA-MB-231. Description: In vitro antiproliferative assay (MTT), MDA-MB-231. It counts as cell-based. To be noted: Homo sapiens, 72 h. As to the method: as §1
For data set [10], the system named is HeLa cell nuclear extract. Description: In vitro HDAC inhibition fluorescent assay, total HDAC. To be noted: Boc-Lys(acetyl)-AMC substrate. It counts as biochemical. As to the method: as §2
Data set [11] concerns tested human cancer cell lines. Description: In vitro antiproliferative assay (MTT), all tested tumor cell lines. It counts as cell-based. As to the method: as §1, with “All cell lines were maintained in Roswell Park Memorial Institute (RPMI) 1640 medium containing 10% fetal bovine serum at 37°C in a 5% CO2 humidified incubator. The” for “The”
The nature of data set [12]: In vitro metabolic stability assay in human liver microsomes. To be noted: with NADPH, 37°C, LC-MS/MS, read-out: t1/2 Human liver microsomes. In kind it is in vitro ADME. As for the experimental part:
Human liver microsomes containing compound 1 were incubated with NADPH at 37°C. At the specific time points, samples were added to acetonitrile to terminate the reaction, then subjected to vortex mixing for 5 min and stored in a freezer at –80°C. Before analysis, the samples were centrifuged. The remainder of 1 in the supernatants was analyzed by LC-MS/MS. The t1/2(half–time) values were calculated using the equation t1/2 = −0.693/k, where k is the slope found in the linear fit of the natural logarithm of the fraction remaining of compound 1 versus incubation time.
For orientation: Microsomes from liver hold many membrane-bound enzymes, among them those of drug oxidation.

Data set [13] deals with PC-3. Description: In vitro antiproliferative assay (MTT), PC-3. It counts as cell-based. To be noted: Homo sapiens, 72 h. As to the method: as §1
Data set [14] deals with MDA-MB-231 xenograft. In kind it is in vivo. To be noted: oral 30 mg/kg/day. As for the experimental part:
Ten days after injection, tumors were palpable and mice were randomized into treatment and control groups (six mice per group). […] Subcutaneous tumors were measured with a vernier caliper every 3 days. Tumor volumes (V) were estimated using the equation (V = ab^2/2, where a and b are the longest and shortest diameter, respectively). The body weight of the mice was also monitored regularly. At the end of the experimental period, mice were sacrificed and the tumor tissues were dissected and weighed. Tumor growth inhibition (TGI) and the relative increment ratio (T/C) were calculated at the end of treatment to reveal the antitumor effects in tumor weight and tumor volume, respectively.
• TGI = (the mean tumor weight of control group – the mean tumor weight of treated group)/the mean tumor weight of control group. • T/C = the mean RTV of treated group (T)/the mean RTV of blank control group (C).
where the relative tumor volume (RTV) is Vt/V0 (Vt is the tumor volume measured at the end of treatment; V0 is the tumor volume measured at the beginning of the treatment).
All the obtained data were used to evaluate the antitumor potency and toxicity of compounds. Data were analyzed by Student’s one-tailed t-test.

The subject of data set [15] is HEL. Description: In vitro antiproliferative assay (MTT), HEL. In kind it is cell-based. To be noted: Homo sapiens, 72 h. As for the experimental part:
as §1

The test system of data set [16] is MOLT-4. Put plainly: In vitro antiproliferative assay (MTT), MOLT-4. In kind it is cell-based. To be noted: Homo sapiens, 72 h. As to the method:
as §1

Details of data set [17]: method as in Konsoula and Jung, 2008. To be noted: reported data of vorinostat; ref Konsoula and Jung, 2008; cited from earlier work.

These results are taken from publication PMC7375020 (Frontiers in Cell and Developmental Biology, 2020).

Structures are written as SMILES. Marks after values point to notes of the source that are not given here.

As a reminder, the IC50 is the midpoint of a concentration-inhibition curve. What is called inhibition is the share of the control response that was lost under treatment.

Chain of HDAC2 (Q92769 whole entry, species assumed): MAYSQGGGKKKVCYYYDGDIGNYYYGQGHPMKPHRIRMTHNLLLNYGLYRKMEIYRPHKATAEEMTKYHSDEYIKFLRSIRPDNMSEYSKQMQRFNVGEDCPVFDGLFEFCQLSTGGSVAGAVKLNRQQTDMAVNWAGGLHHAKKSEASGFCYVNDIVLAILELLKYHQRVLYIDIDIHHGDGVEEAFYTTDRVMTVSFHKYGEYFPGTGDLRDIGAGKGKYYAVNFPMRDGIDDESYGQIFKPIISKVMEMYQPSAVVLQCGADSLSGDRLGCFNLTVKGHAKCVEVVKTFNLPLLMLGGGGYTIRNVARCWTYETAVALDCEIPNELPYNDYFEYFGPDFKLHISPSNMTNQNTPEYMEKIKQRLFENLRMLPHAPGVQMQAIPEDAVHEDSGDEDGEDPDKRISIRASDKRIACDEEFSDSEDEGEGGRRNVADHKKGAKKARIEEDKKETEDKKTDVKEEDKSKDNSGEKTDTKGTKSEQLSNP

As to `O=C(CCCCCCC(=O)Nc1nc2ccc(OC(F)(F)F)cc2s1)NO` [Compound 1, N1-Hydroxy-N8-(6-(Trifluoromethoxy)benzo[d]thiazol-2-yl) Octanediamide], the IC50 in data set [1] is 650 ± 20 nM; in [2], 12 ± 2 nM; in [4], 2740 ± 60 nM; in data set [5], 330 ± 40 nM; in data set [6], 290 ± 7 nM; in data set [7] it was 3.3 ± 0.2 µM. The IC50 in [9] is 770 ± 20 nM; in [10], 120 ± 10 nM; in data set [11] (range over MDA-MB-231, MCF-7, PC-3, SK-N-BE(2), KG-1, MOLT-4, HEL, read-out: IC50 values across all tested human cancer cell lines) it was 140 to 2740 nM; in [13], 2520 ± 330 nM; in data set [15], 140 ± 7 nM; in [16] it was 170 ± 7 nM. The values for the half-life in [3] and in data set [12] were above 120 min and 56 min, respectively. Moreover, the “level of acetyl-histone H4” value in data set [8] is recorded as “dramatically increase”. For the same compound, the “level of acetyl-α-tubulin” value in [8] is given as “dramatically increase”. Besides, the “effect on acetyl-α-tubulin compared with vorinostat” value in [8] (same concentration of 0.5 μM) was “superior to that of vorinostat”. In addition, the “T/C (relative increment ratio, tumor volume)” value in data set [14] (21 consecutive days, nude mice) is recorded as 55%. Moreover, the “TGI (tumor growth inhibition, tumor weight)” value in data set [14] (21 consecutive days, nude mice) is recorded as 59%. Further, in data set [14] (21 days, Figure 6), the “mouse body weights (tolerability)” value was “high tolerability and low toxicity”.

In the case of `O=C(CCCCCCC(=O)Nc1ccccc1)NO` [Vorinostat, suberoylanilide hydroxamic acid, reference compound], the “t1/2 Human plasma” value in [17] is recorded as 75^b min. In [8], the “level of acetyl-histone H4” value was “dramatically increase” and the “level of acetyl-α-tubulin” value is “dramatically increase”.

With `Nc1nc2ccc(OC(F)(F)F)cc2s1` [Riluzole, reference compound], the half-maximal inhibitory concentration (IC50) in [1], in [9], in data set [13] and in [15] was above 10000 nM throughout. Also, in [11] (at 10 μM, tested tumor cell lines, read-out: growth inhibition), the inhibition at 10 µM is below 50%.
